Test results: the supplement of paper PMC5908809

Legend:
IMC-1 (IL-2 20 ng/mL) [1] = test: percent inhibition of viability; higher = more inhibition; conditions: 72 h
YT (IL-2 2.5 ng/mL) [2] = test: as above; conditions: 72 h
NK-92 (IL-2 2.5 ng/mL) [3] = test: as above; conditions: 72 h
[4] = test system: normal primary NK cells, pool 3 (3 donors) (IL-2 2.5 ng/mL); test: as above; conditions: 72 h
DERL-7 (IL-2 2.5 ng/mL) [5] = test: as above; conditions: 72 h
NK-YS (IL-2 2.5 ng/mL) [6] = test: as above; conditions: 72 h
[7] = test system: normal primary NK cells, pool 1 (3 donors), resting (IL-2 0 ng/mL); test: as above; conditions: 72 h
SNK-6 (IL-2 2.5 ng/mL) [8] = test: as above; conditions: 72 h
KHYG-1 (IL-2 2.5 ng/mL) [9] = test: as above; conditions: 72 h
[10] = test system: normal primary NK cells, pool 1 (3 donors) (IL-2 2.5 ng/mL); test: as above; conditions: 72 h
[11] = test system: normal primary NK cells, pool 2 (3 donors) (IL-2 2.5 ng/mL); test: as above; conditions: 72 h
KAI3 (IL-2 2.5 ng/mL) [12] = test: as above; conditions: 72 h
NKL (IL-2 2.5 ng/mL) [13] = test: as above; conditions: 72 h
[14] = test system: normal NK cells expanded with K562-aAPC; test: drug sensitivity score (DSS) (DSS units); higher = more sensitive; extreme values may be limits of the assay; conditions: 72 h; IL-2 2.5 ng/mL
Experimental: (§1)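 Drug sensitivity and resistance testing on K562-aAPC-expanded normal NK cells: 5 concentrations (10-fold steps over a 10,000-fold range), 72 h at 37 °C, viability by CellTiter-Glo normalised to DMSO and benzethonium chloride controls; DSS from the fitted curve.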

IMC-1 (IL-2 20 ng/mL) [15] = test: as above; conditions: 72 h
YT (IL-2 2.5 ng/mL) [16] = test: as above; conditions: 72 h
NK-92 (IL-2 2.5 ng/mL) [17] = test: as above; conditions: 72 h
[18] = test system: normal primary NK cells, pool 3 (3 donors) (IL-2 2.5 ng/mL); test: as above; conditions: 72 h
DERL-7 (IL-2 2.5 ng/mL) [19] = test: as above; conditions: 72 h
NK-YS (IL-2 2.5 ng/mL) [20] = test: as above; conditions: 72 h
[21] = test system: normal primary NK cells, pool 1 (3 donors), resting (IL-2 0 ng/mL); test: as above; conditions: 72 h
SNK-6 (IL-2 2.5 ng/mL) [22] = test: as above; conditions: 72 h
KHYG-1 (IL-2 2.5 ng/mL) [23] = test: as above; conditions: 72 h
[24] = test system: normal primary NK cells, pool 1 (3 donors) (IL-2 2.5 ng/mL); test: as above; conditions: 72 h
[25] = test system: normal primary NK cells, pool 2 (3 donors) (IL-2 2.5 ng/mL); test: as above; conditions: 72 h
KAI3 (IL-2 2.5 ng/mL) [26] = test: as above; conditions: 72 h
NKL (IL-2 2.5 ng/mL) [27] = test: as above; conditions: 72 h
[28] = test system: normal NK cells expanded with K562-aAPC; test: percent inhibition of viability; higher = more inhibition; conditions: 72 h, IL-2 2.5 ng/mL
Experimental: as §1

O=c1ncn2nc(Sc3ccc(F)cc3F)ccc2c1-c1c(Cl)cccc1Cl [VX 745] (max concentration tested 10000 nM)
percent inhibition of viability [%]
Conditions	1 nM	10 nM	100 nM	1000 nM	10000 nM
DERL-7 (IL-2 2.5 ng/mL) [5]	0.51	2.58	3.17	-1.44	23.6
IMC-1 (IL-2 20 ng/mL) [1]	-8.82	-3.76	-6.12	4.33	24.7
KAI3 (IL-2 2.5 ng/mL) [12]	3.09	5.9	15.3	25.4	59.7
KHYG-1 (IL-2 2.5 ng/mL) [9]	-5.86	-3.96	-4.73	1.64	25
NK-92 (IL-2 2.5 ng/mL) [3]	-11.3	-20.3	-9.85	11	37.8
NK-YS (IL-2 2.5 ng/mL) [6]	-7.93	-3.47	3.09	15.2	47.7
NKL (IL-2 2.5 ng/mL) [13]	-15.3	-9.23	3.92	36	58.3
SNK-6 (IL-2 2.5 ng/mL) [8]	-5.31	-15.8	-5.14	3.14	26.2
YT (IL-2 2.5 ng/mL) [2]	-3.02	-3.06	-2.2	8.23	29.8
[4]	-1.25	-5.79	8.52	-4.71	13.8
[7]	13.8	12.2	18.8	9.48	37.9
[10]	1.17	8.88	0.28	10.7	23.3
[11]	-5.75	-3.08	5.63	1.25	19.1
[28]	-6.57	-6.69	-2.69	10.6	7.59

Conditions	drug sensitivity score
DERL-7 (IL-2 2.5 ng/mL) [19]	0.75
IMC-1 (IL-2 20 ng/mL) [15]	1.58
KAI3 (IL-2 2.5 ng/mL) [26]	6.91
KHYG-1 (IL-2 2.5 ng/mL) [23]	1.17
NK-92 (IL-2 2.5 ng/mL) [17]	3.48
NK-YS (IL-2 2.5 ng/mL) [20]	4.52
NKL (IL-2 2.5 ng/mL) [27]	7.53
SNK-6 (IL-2 2.5 ng/mL) [22]	1.52
YT (IL-2 2.5 ng/mL) [16]	2.49
[14]	0.12
[18]	0.07
[21]	5.57
[24]	1.96
[25]	0.67
